Measured values reported in ChEMBL document CHEMBL1201862, “PubChem BioAssay data set” (2004).
Blank lines part the entries; values can stand above or below the molecule they belong to. The source made the active and inactive calls.

Assays:
[1] = target: T1, Rac GTPase-activating protein 1 (Homo sapiens, UniProt Q9H0H5); experiment: blockers of MgcRacGAP-driven Rac1 GTP hydrolysis – biochemical, ADP Hunter fluorescence, primary and confirmatory, confirmation (AID 624330); type: functional
T1 sequence (Q9H0H5 whole entry): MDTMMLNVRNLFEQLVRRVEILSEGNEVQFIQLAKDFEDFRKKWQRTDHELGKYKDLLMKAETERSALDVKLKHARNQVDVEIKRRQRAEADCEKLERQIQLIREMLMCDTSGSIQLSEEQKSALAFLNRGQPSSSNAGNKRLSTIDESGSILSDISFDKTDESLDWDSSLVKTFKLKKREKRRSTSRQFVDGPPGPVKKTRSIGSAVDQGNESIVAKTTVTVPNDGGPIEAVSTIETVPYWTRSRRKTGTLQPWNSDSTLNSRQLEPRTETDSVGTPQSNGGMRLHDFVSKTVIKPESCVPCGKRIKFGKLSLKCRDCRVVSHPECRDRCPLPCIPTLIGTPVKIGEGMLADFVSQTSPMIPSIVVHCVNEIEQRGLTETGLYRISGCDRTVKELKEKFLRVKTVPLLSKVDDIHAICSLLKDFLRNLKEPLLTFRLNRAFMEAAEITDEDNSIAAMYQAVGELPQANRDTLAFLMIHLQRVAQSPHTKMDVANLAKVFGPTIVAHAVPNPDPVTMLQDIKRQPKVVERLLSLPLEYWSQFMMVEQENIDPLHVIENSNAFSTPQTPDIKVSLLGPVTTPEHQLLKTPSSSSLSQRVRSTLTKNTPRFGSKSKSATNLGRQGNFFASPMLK

[2] = target: T2, Sentrin-specific protease 6 (Homo sapiens, UniProt Q9GZR1); type: functional;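 note: Luminescence-based dose-response confirmatory assay of SENP6 inhibition, following up an ultra-high-throughput screen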
T2 sequence (Q9GZR1 whole entry): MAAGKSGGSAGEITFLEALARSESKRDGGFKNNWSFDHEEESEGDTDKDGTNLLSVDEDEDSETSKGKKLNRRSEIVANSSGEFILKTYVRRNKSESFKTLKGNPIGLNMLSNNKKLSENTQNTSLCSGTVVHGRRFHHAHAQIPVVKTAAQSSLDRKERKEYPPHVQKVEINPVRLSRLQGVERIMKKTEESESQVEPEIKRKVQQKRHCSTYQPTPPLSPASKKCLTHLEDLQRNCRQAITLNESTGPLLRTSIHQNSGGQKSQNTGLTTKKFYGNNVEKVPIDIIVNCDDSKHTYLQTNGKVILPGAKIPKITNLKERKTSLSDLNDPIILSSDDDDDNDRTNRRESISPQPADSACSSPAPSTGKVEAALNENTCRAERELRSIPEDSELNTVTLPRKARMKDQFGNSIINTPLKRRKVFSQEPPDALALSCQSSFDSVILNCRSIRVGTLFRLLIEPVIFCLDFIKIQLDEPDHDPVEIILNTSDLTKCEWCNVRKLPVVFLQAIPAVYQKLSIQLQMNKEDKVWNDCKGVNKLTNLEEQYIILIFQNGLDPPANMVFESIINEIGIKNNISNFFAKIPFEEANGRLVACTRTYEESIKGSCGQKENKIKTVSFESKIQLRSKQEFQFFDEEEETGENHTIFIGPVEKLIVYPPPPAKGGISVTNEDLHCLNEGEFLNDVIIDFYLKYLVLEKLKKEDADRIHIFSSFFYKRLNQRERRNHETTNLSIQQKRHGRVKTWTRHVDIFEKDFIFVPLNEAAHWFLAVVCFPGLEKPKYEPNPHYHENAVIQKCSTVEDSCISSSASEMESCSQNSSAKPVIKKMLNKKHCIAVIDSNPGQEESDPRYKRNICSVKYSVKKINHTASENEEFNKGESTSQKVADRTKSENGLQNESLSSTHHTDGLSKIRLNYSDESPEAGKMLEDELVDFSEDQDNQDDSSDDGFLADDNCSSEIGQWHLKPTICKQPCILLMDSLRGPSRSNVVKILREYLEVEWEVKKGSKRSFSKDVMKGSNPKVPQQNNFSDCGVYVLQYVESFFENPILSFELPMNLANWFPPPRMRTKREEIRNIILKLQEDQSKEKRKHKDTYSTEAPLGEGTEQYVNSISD

[3] = viability loss in HeLa cells – cytotoxicity control for MgcRacGAP inhibitor project, dose response (AID 624300); type: functional
[4] = target: T3, Sentrin-specific protease 8 (Homo sapiens, UniProt Q96LD8); type: functional;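 note: luminescence read-out of SENP8 inhibition, dose-response confirmation following an ultra-high-throughput screen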
T3 sequence (Q96LD8 whole entry): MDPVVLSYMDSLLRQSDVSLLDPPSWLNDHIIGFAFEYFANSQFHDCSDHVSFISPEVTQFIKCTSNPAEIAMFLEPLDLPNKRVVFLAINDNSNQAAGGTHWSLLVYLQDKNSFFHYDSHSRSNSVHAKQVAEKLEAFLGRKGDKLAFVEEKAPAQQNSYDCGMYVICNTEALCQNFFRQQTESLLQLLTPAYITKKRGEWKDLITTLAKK

[5] = target: T4, Sentrin-specific protease 7 (Homo sapiens, UniProt Q9BQF6); type: functional;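 note: Luminescence-based dose-response confirmation of ultra-high-throughput screening hits, measuring inhibition of SENP7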
T4 sequence (Q9BQF6 whole entry): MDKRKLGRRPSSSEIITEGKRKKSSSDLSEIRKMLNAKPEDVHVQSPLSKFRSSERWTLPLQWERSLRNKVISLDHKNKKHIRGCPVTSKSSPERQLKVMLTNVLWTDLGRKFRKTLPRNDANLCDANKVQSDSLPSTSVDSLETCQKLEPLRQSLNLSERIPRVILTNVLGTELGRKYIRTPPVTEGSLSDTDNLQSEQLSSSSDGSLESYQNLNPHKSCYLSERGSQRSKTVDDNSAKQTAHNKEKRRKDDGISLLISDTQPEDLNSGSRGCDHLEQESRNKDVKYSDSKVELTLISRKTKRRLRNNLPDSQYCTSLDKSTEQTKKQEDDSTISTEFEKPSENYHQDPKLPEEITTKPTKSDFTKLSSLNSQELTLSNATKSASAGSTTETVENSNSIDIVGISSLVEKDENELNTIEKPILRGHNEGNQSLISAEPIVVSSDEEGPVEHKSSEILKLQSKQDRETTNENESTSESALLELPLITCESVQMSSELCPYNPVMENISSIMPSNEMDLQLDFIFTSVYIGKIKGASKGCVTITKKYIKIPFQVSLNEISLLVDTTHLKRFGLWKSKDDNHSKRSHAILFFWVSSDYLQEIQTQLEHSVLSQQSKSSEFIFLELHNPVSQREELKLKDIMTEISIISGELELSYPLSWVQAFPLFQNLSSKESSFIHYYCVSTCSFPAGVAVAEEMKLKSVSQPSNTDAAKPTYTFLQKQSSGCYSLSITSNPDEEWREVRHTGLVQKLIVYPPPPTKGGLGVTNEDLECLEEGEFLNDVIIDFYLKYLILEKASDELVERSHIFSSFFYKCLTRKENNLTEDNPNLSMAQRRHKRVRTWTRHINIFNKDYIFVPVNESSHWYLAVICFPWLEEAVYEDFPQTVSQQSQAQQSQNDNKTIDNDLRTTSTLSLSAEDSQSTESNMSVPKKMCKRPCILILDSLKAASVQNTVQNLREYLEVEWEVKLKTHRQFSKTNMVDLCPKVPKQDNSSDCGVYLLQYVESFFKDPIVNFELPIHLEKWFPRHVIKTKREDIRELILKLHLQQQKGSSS

Caspase-3 = target: T5, Caspase-3 (Homo sapiens, UniProt P42574); type: functional;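 note: Dose-response selectivity test against caspase-3 for candidate inhibitors of sentrin-specific proteases (SENPs)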
T5 sequence (P42574 whole entry): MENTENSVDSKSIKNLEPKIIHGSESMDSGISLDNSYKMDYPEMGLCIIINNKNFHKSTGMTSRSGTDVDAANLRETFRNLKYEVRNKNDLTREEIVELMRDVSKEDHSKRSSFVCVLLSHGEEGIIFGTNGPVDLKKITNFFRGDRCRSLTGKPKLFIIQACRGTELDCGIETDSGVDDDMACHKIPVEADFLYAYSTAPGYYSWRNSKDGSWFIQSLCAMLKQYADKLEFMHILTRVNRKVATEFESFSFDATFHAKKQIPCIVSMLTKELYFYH

[6] = Fluorescence-based cell-based high throughput dose response assay for inhibitors of the interaction of nucleotide-binding oligomerization domain containing 2 (NOD2) and the receptor-interacting serine-threonine kinase 2 (RIPK2).; type: functional; details: Homo sapiens
Beta Lactamase [7] = target: T6, Beta Lactamase (Pseudomonas aeruginosa, UniProt Q932Y6); experiment: BLA reporter interference, concentration series – BLA reporter cells, FRET fluorescence, artefact control for TLR9-MyD88 binding inhibitor project, dose response (AID 588341); type: cell-based;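 note: cell based assay in CHO-K1 cells stably expressing beta-lactamase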
T6 sequence (Q932Y6 whole entry): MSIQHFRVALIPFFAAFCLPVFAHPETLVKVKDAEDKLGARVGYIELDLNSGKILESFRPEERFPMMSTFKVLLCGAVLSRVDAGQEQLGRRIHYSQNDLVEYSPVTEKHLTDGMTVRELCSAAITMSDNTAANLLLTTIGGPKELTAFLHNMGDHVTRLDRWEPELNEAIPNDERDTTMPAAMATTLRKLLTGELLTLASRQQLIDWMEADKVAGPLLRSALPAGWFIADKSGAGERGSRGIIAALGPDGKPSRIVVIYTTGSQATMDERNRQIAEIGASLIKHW

[8] = target: T7, Type-1 angiotensin II receptor (Homo sapiens, UniProt P30556); experiment: antagonism of angiotensin II type 1 receptor – cell-based, uHTS hits, selectivity assay for APJ receptor antagonist project, dose response (AID 463214); type: functional;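 note: antagonist potency against angiotensin II stimulated AT1 response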
T7 sequence (P30556 whole entry): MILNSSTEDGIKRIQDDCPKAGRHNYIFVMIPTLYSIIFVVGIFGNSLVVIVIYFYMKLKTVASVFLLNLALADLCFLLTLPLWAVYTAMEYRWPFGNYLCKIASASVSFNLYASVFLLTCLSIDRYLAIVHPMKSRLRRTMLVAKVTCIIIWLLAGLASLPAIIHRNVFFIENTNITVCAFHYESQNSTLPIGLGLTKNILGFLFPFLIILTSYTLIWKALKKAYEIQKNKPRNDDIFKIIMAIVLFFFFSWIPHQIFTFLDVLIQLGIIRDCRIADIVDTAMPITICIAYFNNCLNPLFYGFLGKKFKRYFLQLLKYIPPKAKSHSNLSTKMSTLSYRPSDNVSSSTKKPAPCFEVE

Beta Lactamase [9] = target: T6, Beta Lactamase; experiment: BLA reporter interference, concentration series – BLA reporter cells, FRET fluorescence, artefact control for NOD2-RIPK2 interaction inhibitor project, dose response (AID 651552); type: functional, cell-based
[10] = target: T8, Microphthalmia-associated transcription factor (Homo sapiens, UniProt O75030); experiment: reducers of TRPM1 reporter luminescence, concentration series – cell-based, SK-MEL-5, cherry-picked, set 3, MITF inhibitor project, dose response (AID 493073); type: functional;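 note: SK-MEL-5 melanoma cells with luciferase driven by the MITF target TRPM1 promoter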
T8 sequence (O75030 whole entry): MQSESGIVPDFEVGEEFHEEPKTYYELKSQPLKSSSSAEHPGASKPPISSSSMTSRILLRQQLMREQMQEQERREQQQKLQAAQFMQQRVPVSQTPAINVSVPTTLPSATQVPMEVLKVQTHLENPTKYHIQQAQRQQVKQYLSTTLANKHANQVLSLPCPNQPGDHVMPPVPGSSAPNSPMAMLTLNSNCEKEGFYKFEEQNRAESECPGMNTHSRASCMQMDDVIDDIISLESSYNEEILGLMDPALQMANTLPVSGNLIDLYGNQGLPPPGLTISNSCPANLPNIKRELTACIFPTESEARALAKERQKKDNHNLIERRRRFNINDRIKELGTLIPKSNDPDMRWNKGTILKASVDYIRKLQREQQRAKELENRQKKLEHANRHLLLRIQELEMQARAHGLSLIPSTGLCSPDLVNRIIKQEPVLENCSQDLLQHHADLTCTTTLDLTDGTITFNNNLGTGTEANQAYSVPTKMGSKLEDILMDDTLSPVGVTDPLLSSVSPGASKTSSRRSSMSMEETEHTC

Beta-galactosidase = Beta-galactosidase (Escherichia coli, UniProt Q8VNN2); experiment: PubChem AID 485352; type: functional
Sequence of Beta-galactosidase (Q8VNN2 whole entry): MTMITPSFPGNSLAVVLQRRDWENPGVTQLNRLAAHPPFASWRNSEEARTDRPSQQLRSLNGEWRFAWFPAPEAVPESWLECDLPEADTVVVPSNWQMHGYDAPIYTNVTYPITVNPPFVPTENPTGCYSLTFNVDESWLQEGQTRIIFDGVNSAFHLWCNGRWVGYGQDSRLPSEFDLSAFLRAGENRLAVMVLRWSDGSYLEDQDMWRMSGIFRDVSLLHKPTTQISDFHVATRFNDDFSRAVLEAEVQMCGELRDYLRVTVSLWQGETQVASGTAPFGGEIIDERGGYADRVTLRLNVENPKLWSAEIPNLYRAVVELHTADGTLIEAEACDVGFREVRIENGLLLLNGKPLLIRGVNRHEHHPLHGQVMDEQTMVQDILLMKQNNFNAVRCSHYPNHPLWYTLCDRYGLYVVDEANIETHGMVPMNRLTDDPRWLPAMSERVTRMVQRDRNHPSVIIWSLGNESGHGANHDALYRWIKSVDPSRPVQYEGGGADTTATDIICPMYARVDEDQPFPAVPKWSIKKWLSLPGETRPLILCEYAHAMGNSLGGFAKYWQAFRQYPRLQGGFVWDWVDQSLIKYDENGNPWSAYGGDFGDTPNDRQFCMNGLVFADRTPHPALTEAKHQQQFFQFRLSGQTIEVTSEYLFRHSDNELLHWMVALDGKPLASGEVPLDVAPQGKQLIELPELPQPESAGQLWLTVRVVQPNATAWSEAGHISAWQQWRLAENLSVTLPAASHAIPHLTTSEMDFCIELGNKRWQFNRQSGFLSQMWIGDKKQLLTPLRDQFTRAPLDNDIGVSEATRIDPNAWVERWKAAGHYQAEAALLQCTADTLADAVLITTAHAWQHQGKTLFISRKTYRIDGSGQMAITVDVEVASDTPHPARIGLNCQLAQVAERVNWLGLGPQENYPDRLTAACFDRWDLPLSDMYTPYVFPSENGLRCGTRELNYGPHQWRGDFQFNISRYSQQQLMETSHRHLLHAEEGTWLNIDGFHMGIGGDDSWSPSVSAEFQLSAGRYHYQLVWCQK

cells [11] = type: functional, cell-based
CHO = CHO cell viability loss, potency – luminescence, cytotoxicity control for TLR9-MyD88 binding inhibitor project, dose response (AID 588339); type: functional, cell-based, hamster; details: Cricetulus griseus;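 note: CHO cells stably coexpressing TLR9 and MyD88 fusions from primary screen; compound exposure lasted 48 hours before viability readout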
cells [12] = type: functional, cell-based; remark: listed apart in the source
[13] = Counterscreen for inhibitors of Trypanosoma brucei methionyl tRNA synthetase (MetRS): Luminescence-based cell-based high throughput dose response assay to identify compounds that are cytotoxic to Jurkat human T lymphocyte cells.; type: functional
[14] = target: T9, Methionyl-tRNA synthetase, putative (Trypanosoma brucei brucei, UniProt Q38C91); type: functional, Trypanosoma brucei brucei strain 927/4 GUTat10.1
T9 sequence (Q38C91 whole entry): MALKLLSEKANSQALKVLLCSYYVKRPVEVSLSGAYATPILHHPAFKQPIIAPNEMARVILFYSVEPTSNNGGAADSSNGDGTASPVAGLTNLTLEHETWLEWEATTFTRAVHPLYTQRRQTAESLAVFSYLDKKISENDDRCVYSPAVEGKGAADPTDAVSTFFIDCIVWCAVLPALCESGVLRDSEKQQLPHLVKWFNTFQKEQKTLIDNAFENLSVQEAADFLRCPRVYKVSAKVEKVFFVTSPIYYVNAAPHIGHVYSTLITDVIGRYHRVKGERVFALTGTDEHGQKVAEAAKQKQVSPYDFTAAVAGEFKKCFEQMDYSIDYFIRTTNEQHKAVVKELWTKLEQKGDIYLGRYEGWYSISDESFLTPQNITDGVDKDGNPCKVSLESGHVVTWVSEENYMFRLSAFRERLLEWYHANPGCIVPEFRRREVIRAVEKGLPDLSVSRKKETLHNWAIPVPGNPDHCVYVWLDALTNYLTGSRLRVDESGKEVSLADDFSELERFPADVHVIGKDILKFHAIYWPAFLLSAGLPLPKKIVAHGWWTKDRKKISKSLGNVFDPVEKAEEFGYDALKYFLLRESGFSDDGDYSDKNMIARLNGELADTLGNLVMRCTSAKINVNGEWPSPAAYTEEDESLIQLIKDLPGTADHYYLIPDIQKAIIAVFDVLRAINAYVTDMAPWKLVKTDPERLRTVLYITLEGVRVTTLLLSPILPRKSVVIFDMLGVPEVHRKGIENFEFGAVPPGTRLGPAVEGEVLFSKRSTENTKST

[15] = target: T9, Methionyl-tRNA synthetase, putative; type: functional, Trypanosoma brucei brucei strain 927/4 GUTat10.1; remark: listed apart in the source

IC50 [1]: 230 µM (active)
IC50 [2]: 15.1 µM (active)
IC50 [5]: 6.04 µM (active)
IC50 (Caspase-3): 25.5 µM (active)
SMILES: COc1ccc(NC(=O)n2ncc3cc(Cl)ccc32)cc1OC
CC50 [3]: 100 µM (active)
IC50 [4]: 20.3 µM (active)

SMILES: COc1ccc(C(=O)/C=C/C(=O)N(CC(=O)NC2CCCCC2)CC2CCCO2)c(O)c1 (stereo not drawn)
IC50 [6]: 2.17 µM (active)
IC50 (Beta Lactamase [7]): 23.3 µM (inactive)
IC50 [8]: 5.35 µM (active)
IC50 (Beta Lactamase [9]): 19.9 µM (inactive)
AC50 [10]: 4.01 µM (active)
EC50 (Beta-galactosidase): > 40 µM (inactive)
EC50 (cells [11]): 34.3 µM (active)
IC50 (CHO): 1.84 µM (active)
EC50 (cells [12]): > 350 µM (not active)

SMILES: Cc1ccc(NC(=O)C=NOCC(=O)Nc2cc(C)cc(C)c2)cc1
IC50 [13]: 83.3 µM (inactive)
IC50 [14]: 119 µM (inactive)
IC50 [15]: 8.66 µM (active)
